Data on 22 compounds can be found in US9877940B2, “Anthraquinone compounds and their uses” (DUNDALK INSTITUTE OF TECHNOLOGY, priority 2010, dated 2018).

The target of this assay is T1, BK channels (Oryctolagus cuniculus, UniProt Q9BG98).
T1 construct: wherein the native BK channels were more sensitive to Ca^2+; from tissue
Put plainly: Single channel recordings, inside-out patch clamp, voltage ramps, isolated smooth muscle cells of the rabbit bladder. To be noted: for ΔV1/2 (mV) in 100 nm Ca^2+: 10 μM compound, inside-out patch; for effect on BK channel activity, in words (SAR discussion based on V1/2 data): inside out patches on rabbit smooth muscle cells. Type of assay: cell-based. Here is the method:
All experiments were approved by the Dundalk Institute of Technology Animal Care and Use Committee. […] The urinary bladder and most proximal 1.5 cm of the urethra was removed and placed in Krebs solution. Strips of bladder tissue, 0.5 cm in width were dissected, cut into 1 mm^3 pieces and stored in Ca^2+-free Hanks' solution for 30 min prior to cell dispersal. Tissue pieces were incubated in dispersal medium containing (per 5 ml) of Ca^2+-free Hanks' solution: 15 mg collagenase (Sigma type 1A), 1 mg protease (Sigma type XXIV), 10 mg bovine serum albumin (Sigma) and 10 mg trypsin inhibitor (Sigma) for 10-15 min at 37° C. Tissue was then transferred to Ca^2+-free Hanks' solution and stirred for a further 10-15 min to release single smooth muscle cells. These were plated in Petri dishes containing 100 μM Ca^2+ Hanks' solution and stored at 4° C. for use within 8 h. During experiments, the dish containing the cells was continuously perfused with Hanks' solution at 36±1° C. Additionally the cell under study was continuously superfused by means of a custom built close delivery system with a pipette of tip diameter 200 μm placed approximately 300 μm from the cell. The high K^+ solution in the close delivery system could be switched to a drug-containing solution with a dead space time of less than 5 s.
For whole cell recordings pipettes were pulled from borosilicate glass capillary tubing (1.5 mm outer diameter, 1.17 mm inner diameter; Clark Medical Instruments) to a tip of diameter approximately 1-1.5 μm and resistance of 2-4 Mohms. For single channel recordings, pipettes were pulled from borosilicate glass capillary tubing (1.5 mm outer diameter, 0.8 mm inner diameter; Clark Medical Instruments) and fire polished before use. Voltage clamp commands were delivered via an Axopatch 1D or Axon 200B patch clamp amplifiers (Axon Instruments) and membrane currents were recorded by a 12 bit AD/DA converter (Axodata 1200 or Labmaster, Scientific Solutions) interfaced to an Intel computer running pCLAMP software.
All values in (mM): KCl, 140. Glucose, 10, EGTA 1 and HEPES, 10. For free Ca^2+ greater than 300 nM: All values in (mM): KCl, 140. Glucose, 10, H-EDTA 1 and HEPES, 10. The same solution composition is used in the bath as in the patch pipette for these experiments except that the pipette solution contained 100 nM Ca^2+.
In single channel experiments voltage commands were applied using pClamp ramped potentials. This allowed more efficient measurement of slope conductance and channel activation than conventional step depolarisations. Activation curves were calculated by averaging current responses to 15 potential ramps and dividing each data point of the averaged current by the single channel amplitude at that holding potential, after leakage current correction. […] This analysis provides a continuous recording of the number of open channels multiplied by the open probability (NPo) over the entire voltage range. To obtain values for the steepness of the voltage-dependent activation and half-maximal activation voltage, activation curves were fitted with Boltzman functions of the form: NPo=n/{1+exp[−K(V−V1/2)]} where N is the number of channels in the patch, n is the maximal NPo level, K^−1 is the steepness of the voltage-dependent activation (change in potential necessary to cause an e-fold increase in activation) and V1/2 is the voltage at which there is half-maximal activation. Again, all of the experiments were carried out at 36±1° C.
The patches were held at a potential of −100 mV and voltage ramps were then applied from −100 mV up to +100 mV over 2 s.
Patches were held at −100 mV and ramped through to +100 mV and each sweep was repeated 15 times. The same protocol was repeated after the patch was incubated in 1 μM Ca^2+.

T1 sequence (Q9BG98 whole entry): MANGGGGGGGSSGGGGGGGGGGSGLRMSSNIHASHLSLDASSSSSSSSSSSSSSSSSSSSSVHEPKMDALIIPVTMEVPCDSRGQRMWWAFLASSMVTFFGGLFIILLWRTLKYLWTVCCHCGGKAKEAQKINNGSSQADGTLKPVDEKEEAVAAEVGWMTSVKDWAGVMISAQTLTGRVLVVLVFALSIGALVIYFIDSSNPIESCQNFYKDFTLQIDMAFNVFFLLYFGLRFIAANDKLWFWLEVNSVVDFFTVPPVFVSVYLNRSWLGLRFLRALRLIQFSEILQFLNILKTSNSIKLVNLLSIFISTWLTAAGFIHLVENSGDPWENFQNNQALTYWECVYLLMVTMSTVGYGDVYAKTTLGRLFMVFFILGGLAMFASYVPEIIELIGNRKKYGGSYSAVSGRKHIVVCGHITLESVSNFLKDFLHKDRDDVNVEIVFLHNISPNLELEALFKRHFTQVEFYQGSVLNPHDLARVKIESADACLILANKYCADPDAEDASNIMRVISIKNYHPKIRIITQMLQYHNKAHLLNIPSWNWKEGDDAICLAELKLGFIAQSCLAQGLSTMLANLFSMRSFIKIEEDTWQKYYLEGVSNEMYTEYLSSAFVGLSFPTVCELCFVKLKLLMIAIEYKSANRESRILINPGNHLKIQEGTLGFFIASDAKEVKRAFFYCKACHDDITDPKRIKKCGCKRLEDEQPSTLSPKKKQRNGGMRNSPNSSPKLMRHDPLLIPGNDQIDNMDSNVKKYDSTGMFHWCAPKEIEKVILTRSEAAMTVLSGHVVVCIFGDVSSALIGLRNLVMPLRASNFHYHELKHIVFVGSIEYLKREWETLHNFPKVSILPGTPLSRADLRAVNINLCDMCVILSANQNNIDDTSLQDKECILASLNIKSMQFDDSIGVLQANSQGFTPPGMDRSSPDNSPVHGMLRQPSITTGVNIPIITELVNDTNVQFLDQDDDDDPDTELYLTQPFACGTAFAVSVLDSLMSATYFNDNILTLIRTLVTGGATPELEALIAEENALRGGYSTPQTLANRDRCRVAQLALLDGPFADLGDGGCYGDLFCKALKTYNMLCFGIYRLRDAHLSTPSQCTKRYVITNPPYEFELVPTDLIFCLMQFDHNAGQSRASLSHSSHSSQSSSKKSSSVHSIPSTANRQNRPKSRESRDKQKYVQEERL

For the compound `Nc1c(S(=O)(=O)[O-])cc(NC2CCCCC2)c2c1C(=O)c1ccccc1C2=O.[Na+]` [Acid Blue 62, sodium 1-amino-4-(cyclohexylamino)-9,10-dioxo-9,10-dihydroanthracene-2-sulfonate], the “ΔV1/2 (mV) in 100 nm Ca^2+” value (Table 1, V1/2 control vs drug) is recorded as −54.37 mV.
On to `Nc1c(S(=O)(=O)O)cc(Br)c2c1C(=O)c1ccccc1C2=O` [Bromaminic acid, reference compound], for which the “effect on BK channel activity, in words (SAR discussion based on V1/2 data)” value (“effect on BK channel activity, in words” for short) is “inhibitory effect”.
`C=C(C)[C@H]1O[C@H]2CC[C@@]3(C)[C@@](O)(CC[C@H]4[C@@H]5OC(C)(C)[C@H]6C[C@@H]7C(=C)Cc8c(Cl)cc9[nH]c(c5c9c8[C@@]76O)[C@@]43C)[C@@]23O[C@H]3[C@H]1O` [Penitrem A, reference compound]: the “effect on single channel openings” value (100 nM, 1 μM Ca2+, voltage ramp) was “abolished the single channel openings”.
For the compound `Nc1c(S(=O)(=O)[O-])cc(NC2CCCC2)c2c1C(=O)c1ccccc1C2=O.[Na+]` [SR-5-8, sodium 1-amino-4-(cyclopentylamino)-9,10-dioxo-9,10-dihydroanthracene-2-sulfonate], the “ΔV1/2 (mV) in 100 nm Ca^2+” value (Table 1, V1/2 control vs drug) is recorded as −24.24 mV.
On the same count and under the same terms, in the case of `COc1ccccc1Nc1cc(S(=O)(=O)[O-])c(N)c2c1C(=O)c1ccccc1C2=O.[Na+]` [SR-5-12, sodium 1-amino-4-(2-methoxyphenylamino)-9,10-dioxo-9,10-dihydroanthracene-2-sulfonate] it was −54.1 mV.
On to `Nc1c(S(=O)(=O)[O-])cc(Nc2cc(F)cc(F)c2)c2c1C(=O)c1ccccc1C2=O.[Na+]` [SR-5-14, sodium 1-amino-4-(3,5-difluorophenylamino)-9,10-dioxo-9,10-dihydroanthracene-2-sulfonate], for which the “ΔV1/2 (mV) in 100 nm Ca^2+” value (Table 1, V1/2 control vs drug) is reported as −24.2 mV.
On to `Nc1c(S(=O)(=O)[O-])cc(Nc2cccc(F)c2)c2c1C(=O)c1ccccc1C2=O.[Na+]` [SR-5-15, sodium 1-amino-4-(3-fluorophenylamino)-9,10-dioxo-9,10-dihydroanthracene-2-sulfonate], for which, for the setting “Table 1, V1/2 control vs drug”, the “ΔV1/2 (mV) in 100 nm Ca^2+” value is −28.4 mV.
For `Nc1c(S(=O)(=O)[O-])cc(Nc2cccc(S(=O)(=O)O)c2)c2c1C(=O)c1ccccc1C2=O.[Na+]` [SR-5-18, sodium 1-amino-9,10-dioxo-4-(3-sulfophenylamino)-9,10-dihydroanthracene-2-sulfonate], the “effect on BK channel activity, in words” value was “decreases the activity dramatically”. The “ΔV1/2 (mV) in 100 nm Ca^2+” value (Table 1, V1/2 control vs drug) is −23.2 mV.
`Cc1cccc(Nc2cc(S(=O)(=O)[O-])c(N)c3c2C(=O)c2ccccc2C3=O)c1.[Na+]` [SR-5-26, sodium 4-(m-toluidino)-1-amino-9,10-dioxo-9,10-dihydroanthracene-2-sulfonate]: the “ΔV1/2 (mV) in 100 nm Ca^2+” value (Table 1, V1/2 control vs drug) is given as −53.5 mV.
On the same count and under the same terms, in the case of `Nc1c(S(=O)(=O)[O-])cc(Nc2ccc(F)c(C(F)(F)F)c2)c2c1C(=O)c1ccccc1C2=O.[Na+]` [SR-5-28, sodium 1-amino-4-(4-fluoro-3-(trifluoromethyl)phenylamino)-9,10-dioxo-9,10-dihydroanthracene-2-sulfonate] it was −83.2 mV; in that of `CCc1cccc(Nc2cc(S(=O)(=O)[O-])c(N)c3c2C(=O)c2ccccc2C3=O)c1.[Na+]` [SR-5-31, sodium 1-amino-4-(3-ethylphenylamino)-9,10-dioxo-9,10-dihydroanthracene-2-sulfonate], −87.1 mV.
On to `Nc1c(S(=O)(=O)[O-])cc(NC2CCCCCC2)c2c1C(=O)c1ccccc1C2=O.[Na+]` [SR-5-32, sodium 1-amino-4-(cycloheptylamino)-9,10-dioxo-9,10-dihydroanthracene-2-sulfonate], for which the “ΔV1/2 (mV) in 100 nm Ca^2+” value (Table 1, V1/2 control vs drug) is listed as −61.1 mV.
The same measure, in the same setting: in the case of `Nc1c(S(=O)(=O)[O-])cc(Nc2cccc(OC(F)(F)F)c2)c2c1C(=O)c1ccccc1C2=O.[Na+]` [SR-5-34, sodium 1-amino-9,10-dioxo-4-(3-(trifluoromethoxy)phenylamino)-9,10-dihydroanthracene-2-sulfonate] it was −84.0 mV.
As for `Nc1c(S(=O)(=O)[O-])cc(Nc2ccc(Cc3ccccc3)cc2)c2c1C(=O)c1ccccc1C2=O.[Na+]` [SR-5-37, sodium 1-amino-4-(4-benzylphenylamino)-9,10-dioxo-9,10-dihydroanthracene-2-sulfonate], the “effect on BK channel activity, in words” value was “BK channel openers”. For the same compound, under “Table 1, V1/2 control vs drug”, the “ΔV1/2 (mV) in 100 nm Ca^2+” value is on record as −77.8 mV.
On to `Nc1c(S(=O)(=O)[O-])cc(Nc2ccc(Cl)c(C(F)(F)F)c2)c2c1C(=O)c1ccccc1C2=O.[Na+]` [SR-5-40, sodium 1-amino-4-(4-chloro-3-(trifluoromethyl)phenylamino)-9,10-dioxo-9,10-dihydroanthracene-2-sulfonate], for which the “ΔV1/2 (mV) in 100 nm Ca^2+” value (Table 1, V1/2 control vs drug) is recorded as −97.8 mV.
On the same count and under the same terms, the same measure for `Cc1ccc(Nc2cc(S(=O)(=O)[O-])c(N)c3c2C(=O)c2ccccc2C3=O)cc1C(F)(F)F.[Na+]` [SR-5-44, sodium 1-amino-4-(4-methyl-3-(trifluoromethyl)phenylamino)-9,10-dioxo-9,10-dihydroanthracene-2-sulfonate]: −145.4 mV.
Regarding `Nc1c(S(=O)(=O)[O-])cc(Nc2cccc(O)c2)c2c1C(=O)c1ccccc1C2=O.[Na+]` [SR-5-53, sodium 1-amino-4-((3-hydroxyphenyl)amino)-9,10-dioxo-9,10-dihydroanthracene-2-sulfonate], the “ΔV1/2 (mV) in 100 nm Ca^2+” value (Table 2) is reported as −44.1 mV.
As for `CC(C)c1cccc(Nc2cc(S(=O)(=O)[O-])c(N)c3c2C(=O)c2ccccc2C3=O)c1.[Na+]` [SR-5-63, sodium 1-amino-4-((3-isopropylphenyl)amino)-9,10-dioxo-9,10-dihydroanthracene-2-sulfonate], the “effect on BK channel activity, in words” value is listed as “BK channel agonists”. The “ΔV1/2 (mV) in 100 nm Ca^2+” value (Table 2) was −113.1 mV.
As to `Nc1c(S(=O)(=O)[O-])cc(Nc2ccc3c(c2)CCC3)c2c1C(=O)c1ccccc1C2=O.[Na+]` [SR-5-64, sodium 1-amino-4-((2,3-dihydro-1H-inden-5-yl)amino)-9,10-dioxo-9,10-dihydroanthracene-2-sulfonate], the “ΔV1/2 (mV) in 100 nm Ca^2+” value (Table 2) is −87.6 mV.
On to `Nc1c(S(=O)(=O)[O-])cc(Nc2cccc3c2CCCC3)c2c1C(=O)c1ccccc1C2=O.[Na+]` [SR-5-65, sodium 1-amino-9,10-dioxo-4-((5,6,7,8-tetrahydronaphthalen-1-yl)amino)-9,10-dihydroanthracene-2-sulfonate], for which the “effect on BK channel activity, in words” value is “potent BK channel activator”. Under “Table 2”, the “ΔV1/2 (mV) in 100 nm Ca^2+” value was −116.2 mV.
Regarding `Nc1c(S(=O)(=O)[O-])cc(Nc2cccc3ccccc23)c2c1C(=O)c1ccccc1C2=O.[Na+]` [SR-5-66], the “effect on BK channel activity, in words” value is recorded as “potency was dropped substantially”. In addition, the “ΔV1/2 (mV) in 100 nm Ca^2+” value (Table 2) is on record as −53.4 mV.
For `Nc1c(S(=O)(=O)[O-])cc(Nc2cccc(Cc3ccccc3)c2)c2c1C(=O)c1ccccc1C2=O.[Na+]` [SR-5-68, sodium 1-amino-4-((3-benzylphenyl)amino)-9,10-dioxo-9,10-dihydroanthracene-2-sulfonate], the “effect on BK channel activity, in words” value is given as “BK channel agonists”. The “ΔV1/2 (mV) in 100 nm Ca^2+” value (Table 2) is −120.0 mV.
